Where two headings read alike, the source gives them in different places.
Test system: Human retinal pigmented epithelium cells (RPE)
Assay: NO bioassay: DAF-FM DA fluorescence as indicator of NO in RPE cells
Format: cell-based
[1] = RPE cells in PBS supplemented with Ca2+ and Mg2+
[2] = RPE cells without calcium (calcium-free PBS)
[3] = Table 3, DAF-FM DA NO fluorescence change vs control, WT RPE cells in PBS with 5 mM Ca2+ + Mg2+ + 8 mM pyruvate, agent 300 ppm unless stated

Structure (SMILES) | NO level (DAF-FM DA fluorescence) relative to control, in words [1] | NO level (DAF-FM DA fluorescence) relative to control, in words [2] | [(E − C)/C] × 100 (N = 3, A.U. %) [3] | NO level (DAF-FM DA fluorescence) relative to control, in words | also measured
[Fe+3] [Fe^3+] | dropped by varying degrees | could not be restored | −93% |  | 
CC(=O)OCOC(=O)CN(CC(=O)OCOC(C)=O)c1ccccc1OCCOc1ccccc1N(CC(=O)OCOC(C)=O)CC(=O)OCOC(C)=O [BAPTA, 1,2-Bis(2-amino-phenoxy)ethane-N,N,N′,N′-tetraacetic acid tetrakis (acetoxymethyl ester)] |  |  |  | lower | [(E − C)/C] × 100 (N = 6, A.U. %): 11%
O=C1c2c(O)cccc2Cc2cccc(O)c21 [Dithranol] |  |  | −69% |  | 
O=NO [Nitrite, sodium nitrite] |  |  |  | increased relative to control | [(E − C)/C] × 100 (N = 3, A.U. %): 2%
[Ca+2].[Cl-].[Cl-] [Ca^2+, calcium chloride] |  |  |  | slight decrease in NO | 
[Ce+3] [Ce^3+] | dropped by varying degrees | could not be restored | −96% |  | 
[Pr+3] [Pr^3+] | dropped by varying degrees | could not be restored | −91% |  | decrease of NO (low DAF-FM DA fluorescence), modal (addition of agent to RPE cells, Table 3): 91%
